From ChEMBL document CHEMBL4251597, “Discovery and evolution of aloperine derivatives as a new family of HCV inhibitors with novel mechanism” (Eur J Med Chem, 2018)
pEC50: −log10 of the molar value. Activity calls are given as the source filed them. No cut-off for these calls is given here.

How the values were obtained:
[1] = Selectivity index, ratio of CC50 for human Huh7.5 cells to EC50 for HCV J6/JFH/JC-1; assay type: toxicity; settings: read-out: Ratio CC50/EC50
[2] = test system: Hepatitis C virus; test: Antiviral activity against HCV J6/JFH/JC-1 infected in human Huh7.5 cells assessed as inhibition of viral RNA replication after 72 hrs by qRT-PCR method; assay type: functional, organism-based, Hepacivirus hominis; settings: J6/JFH/JC-1, Huh7.5, 72 h
[3] = Cytotoxicity against human Huh7.5 cells after 72 hrs by MTT assay; assay type: cell-based
[4] = Acute toxicity in po dosed Kunming mouse measured for 7 days; assay type: organism-based; settings: in vivo
[5] = AUC (0 to t) in mouse at 25 mg/kg, po after 0.25 to 6 hrs; assay type: ADME, organism-based; parameters: time upper 6 hr, time lower 0.25 hr, dose 25 mg/kg, route oral; settings: in vivo
[6] = MRT in mouse at 25 mg/kg, po after 0.25 to 6 hrs; assay type: ADME, organism-based; settings: in vivo
[7] = Half life in mouse at 25 mg/kg, po after 0.25 to 6 hrs; assay type: ADME, organism-based; settings: in vivo
[8] = Cmax in mouse at 25 mg/kg, po after 0.25 to 6 hrs; assay type: ADME, organism-based; parameters: dose 25 mg/kg, route oral; settings: in vivo
[9] = Tmax in mouse at 25 mg/kg, po after 0.25 to 6 hrs; assay type: ADME, organism-based; settings: in vivo
[10] = test system: Hepatitis C virus; test: Antiviral activity against HCV infected in human GS4.3 cells assessed as inhibition of NS3/4A levels at 0.15 uM treated with fresh media containing compound every 2 days measured after 6 days by Western blot method; assay type: functional, organism-based; settings: Hepacivirus hominis
[11] = test system: Hepatitis C virus; test: Antiviral activity against HCV infected in human GS4.3 cells assessed as inhibition of viral core protein levels at 0.15 uM treated with fresh media containing compound every 2 days measured after 6 days by Western blot method; assay type: functional, organism-based; settings: Hepacivirus hominis
[12] = test system: Hepatitis C virus; test: Antiviral activity against HCV J6/JFH/JC-1 infected in human Huh7.5 cells harboring NS3/4A D168V mutant assessed as inhibition of viral core protein levels at 0.01 to 1 uM treated with fresh media containing compound every 2 days by Western blot method; assay type: functional, organism-based; settings: Hepacivirus hominis
[13] = test system: Hepatitis C virus; test: Antiviral activity against HCV J6/JFH/JC-1 infected in human Huh7.5 cells assessed as inhibition of NS3/4A D168V mutant levels at 0.01 to 1 uM treated with fresh media containing compound every 2 days by Western blot method; assay type: functional, organism-based; settings: Hepacivirus hominis

SMILES	pEC50 [2]	selectivity ratio [1]	CC50 at 72 h [3]	further results
CS(=O)(=O)c1ccc(S(=O)(=O)N2CCCC3=C[C@H]4C[C@H](CN5CCCC[C@H]45)[C@@H]32)cc1	4.73	9.97	186 µM	–
NCCS(=O)(=O)N1CCCC2=C[C@H]3C[C@H](CN4CCCC[C@H]34)[C@@H]21	5.57	97.2	264 µM	LD50 at 168 h [4]: 750 mg/kg; AUC(0-t) [5]: 7.78 µM·h; MRT [6]: 5.96 h; half-life [7]: 10.2 h; Cmax [8]: 1450 nM; Tmax [9]: 1.17 h
COc1ccc(C(=O)N2CCCC3=C[C@H]4C[C@H](CN5CCCC[C@H]45)[C@@H]32)cc1	4.20	> 8	> 500 µM	–
O=C1c2ccccc2C(=O)N1CCS(=O)(=O)N1CCCC2=C[C@H]3C[C@H](CN4CCCC[C@H]34)[C@@H]21	4.16	> 7.29	> 500 µM	–
O=S(=O)(c1ccc2c(c1)CCO2)N1CCCC2=C[C@H]3C[C@H](CN4CCCC[C@H]34)[C@@H]21	5.06	25.1	217 µM	–
CC(=O)Nc1nc(C)c(S(=O)(=O)N2CCCC3=C[C@H]4C[C@H](CN5CCCC[C@H]45)[C@@H]32)s1	4.91	14.7	182 µM	–
COc1ccccc1CN1CCCC2=C[C@H]3C[C@H](CN4CCCC[C@H]34)[C@@H]21	5.17	10.2	69.3 µM	–
C1=C2CCCN[C@H]2[C@@H]2C[C@H]1[C@H]1CCCCN1C2	5.36	54.5	235 µM	–
O=S(=O)(c1ccncc1)N1CCCC2=C[C@H]3C[C@H](CN4CCCC[C@H]34)[C@@H]21	4.94	32.6	371 µM	–
C1=C2CCCN(Cc3ccncc3)[C@H]2[C@@H]2C[C@H]1[C@H]1CCCCN1C2	4.01	> 5.11	> 500 µM	–
O=C(O)c1ccccc1S(=O)(=O)N1CCCC2=C[C@H]3C[C@H](CN4CCCC[C@H]34)[C@@H]21	4.33	> 10.8	> 500 µM	–
COC(=O)N[C@H](C(=O)N1CCC[C@H]1c1ncc(-c2ccc(-c3ccc(-c4cnc([C@@H]5CCCN5C(=O)[C@@H](NC(=O)OC)C(C)C)[nH]4)cc3)cc2)[nH]1)C(C)C	–	–	–	inhibition [10]: Active; inhibition [11]: Active
O=C(O)c1ccc(C(=O)N2CCCC3=C[C@H]4C[C@H](CN5CCCC[C@H]45)[C@@H]32)cc1	4.13	> 6.78	> 500 µM	–
Nc1ccc(S(=O)(=O)N2CCCC3=C[C@H]4C[C@H](CN5CCCC[C@H]45)[C@@H]32)cc1	4.97	26.9	288 µM	–
O=S(=O)(c1cccc2cccnc12)N1CCCC2=C[C@H]3C[C@H](CN4CCCC[C@H]34)[C@@H]21	5.13	33.8	249 µM	–
O=S(=O)(c1ccc2c(c1)OCCO2)N1CCCC2=C[C@H]3C[C@H](CN4CCCC[C@H]34)[C@@H]21	4.63	> 21.3	> 500 µM	–
COC(=O)c1ccc(S(=O)(=O)N2CCCC3=C[C@H]4C[C@H](CN5CCCC[C@H]45)[C@@H]32)cc1	4.09	3.51	283 µM	–
O=C(O)c1ccc(S(=O)(=O)N2CCCC3=C[C@H]4C[C@H](CN5CCCC[C@H]45)[C@@H]32)cc1	< 3.78	–	> 500 µM	–
COC(=O)c1ccccc1S(=O)(=O)N1CCCC2=C[C@H]3C[C@H](CN4CCCC[C@H]34)[C@@H]21	5.09	32.8	269 µM	–
COc1cc(C(=O)N2CCCC3=C[C@H]4C[C@H](CN5CCCC[C@H]45)[C@@H]32)cc(OC)c1OC	4.55	10.2	290 µM	–
COC(=O)c1ccc(C(=O)N2CCCC3=C[C@H]4C[C@H](CN5CCCC[C@H]45)[C@@H]32)cc1	4.94	23.4	271 µM	–
COc1ccc2c(O[C@@H]3C[C@H]4C(=O)N[C@]5(C(=O)NS(=O)(=O)C6CC6)C[C@H]5/C=C/CCCCN(C)C(=O)[C@@H]4C3)cc(-c3nc(C(C)C)cs3)nc2c1C	–	–	–	inhibition [12]: inactive; inhibition [13]: inactive
CC(=O)Nc1ccc(S(=O)(=O)N2CCCC3=C[C@H]4C[C@H](CN5CCCC[C@H]45)[C@@H]32)cc1	4.26	5.64	309 µM	–
COc1ccc(S(=O)(=O)N2CCCC3=C[C@H]4C[C@H](CN5CCCC[C@H]45)[C@@H]32)cc1OC	5.19	33.6	215 µM	–

Continued by rising pEC50 [2], values first:

pEC50 [2]	SMILES	selectivity ratio [1]	CC50 at 72 h [3]	further results
5.22	Cc1nc(N)sc1S(=O)(=O)N1CCCC2=C[C@H]3C[C@H](CN4CCCC[C@H]34)[C@@H]21	34.7	209 µM	–
5.22	COc1ccc(S(=O)(=O)N2CCCC3=C[C@H]4C[C@H](CN5CCCC[C@H]45)[C@@H]32)cc1	16.9	102 µM	–
5.25	CC(=O)c1ccc(S(=O)(=O)N2CCCC3=C[C@H]4C[C@H](CN5CCCC[C@H]45)[C@@H]32)cc1	42.1	234 µM	–
5.26	O=S(=O)(c1cccc2nsnc12)N1CCCC2=C[C@H]3C[C@H](CN4CCCC[C@H]34)[C@@H]21	57.2	314 µM	–
5.31	COc1ccc(S(=O)(=O)N2CCCC3=C[C@H]4C[C@H](CN5CCCC[C@H]45)[C@@H]32)cc1C	15	73.2 µM	–
5.45	O=[N+]([O-])c1ccc(CN2CCCC3=C[C@H]4C[C@H](CN5CCCC[C@H]45)[C@@H]32)cc1	26.5	94.4 µM	–
5.47	N#Cc1ccc(S(=O)(=O)N2CCCC3=C[C@H]4C[C@H](CN5CCCC[C@H]45)[C@@H]32)cc1	78	265 µM	AUC(0-t) [5]: 0.77 µM·h; MRT [6]: 1.82 h; half-life [7]: 1.97 h; Cmax [8]: 410 nM; Tmax [9]: 0.33 h
5.48	N#Cc1ccccc1S(=O)(=O)N1CCCC2=C[C@H]3C[C@H](CN4CCCC[C@H]34)[C@@H]21	77.1	256 µM	–
5.71	N#Cc1ccccc1CN1CCCC2=C[C@H]3C[C@H](CN4CCCC[C@H]34)[C@@H]21	9.64	18.8 µM	–
5.74	CC(C)Oc1ccc(S(=O)(=O)N2CCCC3=C[C@H]4C[C@H](CN5CCCC[C@H]45)[C@@H]32)cc1	19.2	34.8 µM	–
5.92	COc1ccc(Cl)cc1S(=O)(=O)N1CCCC2=C[C@H]3C[C@H](CN4CCCC[C@H]34)[C@@H]21	76.8	92.9 µM	–
6.02	COc1ccc(CN2CCCC3=C[C@H]4C[C@H](CN5CCCC[C@H]45)[C@@H]32)cc1	86.6	83.1 µM	–
